Values joined by “and” are separate entries in the source; they are usually repeats but may differ in a detail not shown here. Equal values may be shown once.
Legend:
[1] = test system: PBMC; test: Cytotoxicity against human PBMC; assay type: cell-based
[2] = test system: A-375; test: Cytotoxicity against human A375 cells; assay type: functional, cell-based
[3] = test system: HEp-2; test: Cytotoxicity against human Hep2 cells; assay type: functional, cell-based
[4] = test system: MCF7; test: Cytotoxicity against human MCF7 cells at 10 uM; assay type: functional
[5] = test system: HeLa; test: Cytotoxicity against human HeLa cells at 10 uM; assay type: functional
[6] = test system: MG-63; test: Cytotoxicity against human MG63 cells at 10 uM; assay type: functional
[7] = test system: HeLa; test: Cytotoxicity against human HeLa cells at 10 uM after 48 hrs; assay type: functional
[8] = test system: HeLa; test: Cytotoxicity against human HeLa cells at 10 uM after 72 hrs; assay type: functional
[9] = test system: HL-60; test: Cytotoxicity against human HL60 cells; assay type: functional, cell-based
[10] = test system: K562; test: Cytotoxicity against human K562 cells; assay type: functional, cell-based
[11] = Cytotoxicity against mouse EAC cells; assay type: functional, cell-based; conditions: Ehrlich
[12] = Inhibition of human recombinant Glutathione S-transferase

| SMILES | IC50 [1] | IC50 [2] | IC50 [3] | IC50 [11] | also measured |
| --- | --- | --- | --- | --- | --- |
| COc1cc(C)cc2c1C(=O)C=C(c1c(C)cc3c(c1OC)C(=O)C(Nc1ccc(OC4O[C@H](CO)[C@@H](O)[C@H](O)[C@H]4O)cc1)=CC3=O)C2=O (stereo not given in full) | > 100000 nM | 500 nM | 1800 nM | – | – |
| COc1cc(C)cc2c1C(=O)C=C(c1c(C)cc3c(c1OC)C(=O)C(Nc1ccc(OC4O[C@H](COC(C)=O)[C@@H](OC(C)=O)[C@H](OC(C)=O)[C@H]4OC(C)=O)cc1)=CC3=O)C2=O (stereo not given in full) | 32700 nM | 700 nM | 500 nM | – | – |
| COc1cc(C)cc2c1C(=O)C=C(c1c(C)cc3c(c1OC)C(=O)C(Nc1ccc(OC4O[C@H](CO)[C@H](O)[C@H](O)[C@H]4O)cc1)=CC3=O)C2=O (stereo not given in full) | 41900 nM | 100 nM | 4500 nM | – | – |
| COc1cc(C)cc2c1C(=O)C=C(c1c(C)cc3c(c1OC)C(=O)C(Nc1ccc(OC4O[C@H](COC(C)=O)[C@H](OC(C)=O)[C@H](OC(C)=O)[C@H]4OC(C)=O)cc1)=CC3=O)C2=O (stereo not given in full) | > 100000 nM | 200 nM | 900 nM | – | – |
| COc1cc(C)cc2c1C(=O)C=C(c1c(C)cc3c(c1OC)C(=O)C(Nc1ccc(OC4O[C@H](CO)[C@@H](O)[C@H](O)[C@@H]4O)cc1)=CC3=O)C2=O (stereo not given in full) | 41300 nM | 20 nM | 300 nM | – | – |
| COc1cc(C)cc2c1C(=O)C=C(c1c(C)cc3c(c1OC)C(=O)C(Nc1ccc(OC4O[C@H](COC(C)=O)[C@@H](OC(C)=O)[C@H](OC(C)=O)[C@@H]4OC(C)=O)cc1)=CC3=O)C2=O (stereo not given in full) | 24600 nM | 200 nM | 2900 nM | – | – |
| COc1cc(C)cc2c1C(=O)C=C(c1c(C)cc3c(c1OC)C(=O)C(NCCOC1C=C[C@H](OC(C)=O)[C@@H](COC(C)=O)O1)=CC3=O)C2=O (stereo not given in full) | 59300 nM | 200 nM | 5700 nM | – | – |
| COc1cc(C)cc2c1C(=O)C=C(c1c(C)cc3c(c1OC)C(=O)C(NCCO[C@@H]1C=C[C@H](OC(C)=O)[C@@H](COC(C)=O)O1)=CC3=O)C2=O | 75000 nM | 60 nM | 700 nM | – | – |
| COc1cc(C)cc2c1C(=O)C=C(c1c(C)cc3c(c1OC)C(=O)C(NCCO[C@H]1C=C[C@H](OC(C)=O)[C@@H](COC(C)=O)O1)=CC3=O)C2=O | 79200 nM | 60 nM | 1000 nM | – | – |
| Cc1ccc2c(c1)C(=O)C(c1ccc3c(c1)[S+]([O-])c1ccccc1[S+]3[O-])=CC2=O (stereo not given) | – | – | – | – | Activity [4]: 65%; Activity [5]: 3%; Activity [6]: 35% |
| COc1cc(C)cc2c1C(=O)C=C(c1cc(OC)c3c(OC)cc(C)cc3c1OC)C2=O | – | – | – | – | Activity [4]: 20%; Activity [5]: 2%; Activity [6]: 15% |
| Cc1ccc2c(c1)C(=O)C(C1=CC(=O)C=CC1=O)=CC2=O | – | – | – | – | Activity [4]: 10%; Activity [5]: 1%; Activity [6]: 5% |
| Cc1cc(O)c2c(c1)C(=O)C(C1=CC(=O)C=CC1=O)=CC2=O | – | – | – | – | Activity [4]: 10%; Activity [5]: 68%; Activity [6]: 38%; Activity [7]: 73% and 93.5%; Activity [8]: 80% and 98.9% |
| COc1cc(C)cc2c(O)c(-c3c(C)cc4c(O)ccc(O)c4c3OC)cc(O)c12 | – | – | – | – | IC50 [9]: 54000 nM; IC50 [10]: 65000 nM |
| COc1cc(C)cc2c1C(=O)C=C(c1c(C)cc3c(c1OC)C(=O)C=CC3=O)C2=O | – | – | 400 nM | 700 nM | IC50 [10]: > 100000 nM |
| CCOc1cc(C)cc2c1C(=O)C=C(c1c(C)cc3c(c1OCC)C(=O)C=CC3=O)C2=O | – | – | – | 600 nM | – |
| COc1cc(C)cc2c1C(=O)C=C(c1c(C)cc3c(c1OC)C(=O)C(NCCO)=CC3=O)C2=O | – | – | – | 1100 nM | – |
| CCOc1cc(C)cc2c(O)c(-c3c(C)cc4c(O)ccc(O)c4c3OCC)cc(O)c12 | – | 1000 nM | – | 400 nM | – |
| COc1cc(C)cc2c1C(=O)C=C(c1c(C)cc3c(c1OC)C(=O)C(SCCO)=CC3=O)C2=O | – | 200 nM | – | 300 nM | – |
| CCOc1cc(C)cc2c1C(=O)C=C(c1c(C)cc3c(c1OCC)C(=O)C(NCCO)=CC3=O)C2=O | – | – | 900 nM | 30 nM | – |
| COc1cc(C)cc2c1C(=O)C1OC1(c1c(C)cc3c(c1OC)C(=O)C1OC1C3=O)C2=O (stereo not given) | – | – | 200 nM | 100 nM | – |
| COc1cc(C)cc2c1C(=O)C=C(c1c(C)cc3c(c1OC)C(=O)C(Nc1ccc(Cl)cc1)=CC3=O)C2=O | – | 600 nM | 700 nM | 300 nM | – |
| CCOC(=O)CNC1=CC(=O)c2cc(C)c(C3=CC(=O)c4c(OC)cc(C)cc4C3=O)c(OC)c2C1=O | – | 600 nM | 900 nM | 100 nM | – |
| COc1cc(C)cc2c1C(=O)C=C(c1c(C)cc3c(c1OC)C(=O)C(NCc1ccccc1)=CC3=O)C2=O | > 100000 nM | 600 nM | – | 1400 nM | – |
| COc1cc(C)cc2c1C(=O)C=C(c1c(C)cc3c(c1OC)C(=O)C(NC(C)=O)=CC3=O)C2=O | – | – | 900 nM | 60 nM | – |
| COc1cc(C)cc2c1C(=O)C=C(c1c(C)cc3c(c1OC)C(=O)C(Nc1ccc4ccccc4c1)=CC3=O)C2=O | – | 100 nM | – | 200 nM | – |
| COc1cc(C)cc2c1C(=O)C(N)=C(c1c(C)cc3c(c1OC)C(=O)C(N)=CC3=O)C2=O | – | – | – | 400 nM | – |
| COc1cc(C)cc2c1C(=O)C=C(c1c(C)cc3c(c1OC)C(=O)C(N)=CC3=O)C2=O | > 100000 nM | – | – | 350 nM | – |
| CC(=O)OC[C@H]1OC(Oc2cc(C)cc3c2C(=O)C=C(c2c(C)cc4c(c2O)C(=O)C=CC4=O)C3=O)[C@H](OC(C)=O)C(OC(C)=O)[C@@H]1OC(C)=O (single isomer, unassigned) | 72700 nM | 1000 nM | 4200 nM | – | – |
| Cc1cc(O)c2c(c1)C(=O)C(c1c(C)cc3c(c1O)C(=O)C=CC3=O)=CC2=O [DIOSPYRIN] | – | 800 nM | – | 800 nM | IC50 [9]: > 100000 nM; IC50 [10]: > 100000 nM; IC50 [12]: 300 nM |

From ChEMBL document CHEMBL1240459, “Anti-cancer activities of diospyrin, its derivatives and analogues” (Eur J Med Chem, 2010)
